{"source": "patent US20100041630A1", "about": "“Methods for Treating or Preventing Inflammation Using a Glycerophosphate Salt” (PRELIEF INC., priority 2007, published 2010)", "system": "rats with inflammatory condition associated with polyarthritis", "assay": "Therapeutic effectiveness in rats with polyarthritis induced by heat-killed Mycobacterium tuberculosis", "type": "in vivo", "details": "therapeutically effective amount, injection 1 to 5 times a day for 3-10 days, polyarthritic rats"}
{"substance": "calcium glycerophosphate [CGP]", "values": [{"measurement": "reduction of the overall arthritis score", "value": "at least 20%"}]}
